Assay results published in patent publication US20260053801A1, “METHOD FOR TREATING AUTOPHAGY DEPENDENT CANCER WITH A PIKFYVE INHIBITOR” (The Regents of the University of Michigan, priority 2023, published 2026).

What was measured:
[1] = system: NCI-H660 NEPC cell line-derived xenografts; assay: NCI-H660 NEPC xenograft in SCID mice; assay type: in vivo; details: 46 days of treatment, 30 mg/kg
Protocol: (§1) For xenograft studies, 6-10-week-old CB17 severe combined immunodeficiency (SCID) mice obtained from the University of Michigan breeding colony were used. For syngeneic studies, 6-10-week-old C57BL6 mice obtained from Jackson Laboratories were used. Subcutaneous tumors were established at both sides of the dorsal flank of the mice by injecting 1×10^6 cells in […] of 50:50 Matrigel and serum-free media. Tumors were measured 2-3 times per week using digital calipers following the formula (π/6) (L×W2), where L=length and W=width of the tumor. At the end of the studies, mice were sacrificed, and tumors extracted and weighed.
Given the hypoxic and nutrient-depleted environments of NEPC Guo et al., Nat Commun. 2019; 10(1):278; Qi et al., Cancer Cell. 2010; 18(1):23-38., it was hypothesized that NEPC may be dependent on autophagy and sensitive to PIKfyve inhibition by ESK981. To test this NEPC prostate patient-derived xenograft (PDX) of NCI-H660, LTL331R, and LTL610 were subcutaneously grown into non-castrated SCID mice until tumors reached an average size of 100 mm^3, after which mice were randomized into two groups. Mice in each group received either vehicle or 30 mg/kg ESK981 five days per week. […] The anti-tumor effect of ESK981 was in turn confirmed in two additional NEPC PDX models including LTL331R (FIGS. 12-14) and LTL610 xenografts (FIG. 15-17). […]

LTL545 NEPC PDX tumors = assay: LTL545 NEPC PDX model; details: mouse, in vivo
[2] = system: MIA-PaCa-2 human PDAC cell line xenograft; assay: MIA-PaCa-2 PDAC xenograft (CDX) in SCID mice; assay type: in vivo; details: Day 36 versus Day 1
Protocol: as §1
Terminal dUTP Nick End Labeling (TUNEL) staining was performed with an In Situ Cell Death Detection Kit (TMR Red #12156792910; Roche Applied Science) following the manufacturer's instructions. Briefly, fixed sections were permeabilized using Triton X-100 followed by PBS washing. The labelling reaction was performed at 37° C. for 1 hour by addition of the reaction buffer containing enzymes. Images were acquired using a Zeiss Axiolmager M1 microscope.
Given the enhanced autophagy dependence of PDAC and the urgent need for new therapies, ESK981 was investigated for efficacy in combatting this type of cancer. […]

7940B orthotopic tumors = assay: 7940B syngeneic orthotopic model in C57BL/6 mice; assay type: in vivo, mouse; details: ESK981 30 mg/kg QD PO, trametinib 1 mg/kg QD PO
[3] = system: MIA PaCa-2, PANC-1, and 7940B cell lines; assay: Confluence assays of ND646 with PIKfyve inhibitors; assay type: cell-based, human and mouse; details: ND646 100 nM (MIA PaCa-2, PANC-1), 1000 nM (7940B)
Protocol: (§2) Cells were seeded in a clear 96-well plate overnight prior to treatment. Upon treatment with indicated compounds, plates were incubated in an Incucyte S3 2022 Rev1 (Sartorious), with 10× images taken every 4 hours, and well confluence was analyzed to assess for proliferation.

ACC1 = target: T1, ACC1 (Homo sapiens, UniProt Q13085); assay: Immunoblot of ACC1 phosphorylation status upon ND646; assay type: cell-based; details: MIA PaCa-2, PANC-1, 7940B cells
T1 construct: endogenous in cells; host or cells: MIA PaCa-2 (human PDAC)
Protocol: Cell lysates were prepared in RIPA buffer (ThermoFisher Scientific) supplemented with Halt™ Protease and Phosphatase Inhibitor Cocktail (ThermoFisher Scientific). Total protein was measured by DC™ Protein Assay Kit II (BIO-RAD). An equal amount of protein was resolved in NuPAGE™ 3 to 8%, Tris-Acetate Protein Gel (ThermoFisher Scientific) or NuPAGE™ 4 to 12%, Bis-Tris Protein Gel (ThermoFisher Scientific), blocked with 5% nonfat dry milk in TBS-T and blotted with primary antibodies overnight. Following incubation with HRP-conjugated secondary antibodies, membranes were imaged on an Odyssey CLx Imager (LiCOR Biosciences).

7940B cells = assay: Real-time oxygen consumption rate (Resipher) in 7940B cells; assay type: cell-based, mouse; details: apilimod 100 nM, ESK981 1000 nM, bafilomycin 100 nM, chloroquine 100 μM
Protocol: Real-time monitoring of basal oxygen consumption rate was performed using a Resipher (Lucid Scientific). […] Immediately following treatment with an additional 50 μl of medium (for a total of 100 μl), OCR monitoring was started by placing the Resipher device on the cells, which was incubated at 37° C. and 5% CO2 for 24 hours.

[4] = system: PDAC cells (7940B, PANC-1, Panc 04.03); assay: Rescue of antiproliferative effects with ferric ammonium citrate (FAC); assay type: cell-based, human and mouse; details: with ferric ammonium citrate and ferrostatin-1 (1 μM)
Protocol: as §2

CC(C)Cn1c2ccc(Nc3ncccn3)cc2c2c3c(c4c(c21)CCc1nn(C)cc1-4)C(=O)NC3 [ESK981, 13-isobutyl-4-methyl-10-(pyrimidin-2-ylamino)-1,2,4,7,8,13-hexahydro-6H-indazolo[5,4-a]pyrrolo[3,4-c]carbazol-6-one]
adverse events [1]: no adverse events were observed | individual tumors regressed (waterfall plot) (LTL545 NEPC PDX tumors): 80% | tumors cured (LTL545 NEPC PDX tumors): 80% | rate of tumor regression (waterfall plot) [2]: 64% | mouse body weight throughout the treatment course (7940B orthotopic tumors): did not impact mouse body weight

COc1ccccc1[C@H](Cn1c(=O)n(C(C)(C)C(N)=O)c(=O)c2c(C)c(-c3ncco3)sc21)OC1CCOCC1 [ND646]
sensitization to ESK981 (confluence) ([3]; ESK981 30 nM or 100 nM): sensitized | sensitization to apilimod (confluence) ([3]; apilimod 100 nM or 50 nM): sensitized | phosphorylation status of ACC1 (p-ACC1) (ACC1): on-target effects

CO/C1=C\C(C)=C\[C@@H](C)[C@@H](O)[C@@H](C)C/C(C)=C/C=C/[C@H](OC)[C@@H]([C@@H](C)[C@@H](O)[C@H](C)[C@@]2(O)C[C@@H](O)[C@H](C)[C@@H](C(C)C)O2)OC1=O [bafilomycin A1]
OCR through 24 hours of treatment (7940B cells): significantly decreased OCR | antiproliferative effects upon addition of FAC [4]: drastically attenuated

CC(=O)Nc1cccc(-n2c(=O)n(C3CC3)c(=O)c3c(Nc4ccc(I)cc4F)n(C)c(=O)c(C)c32)c1 [trametinib]
mouse body weight throughout the treatment course (7940B orthotopic tumors): did not impact mouse body weight
